Data on 63 compounds can be found in a melting point compilation (Tetko et al.; mined from patent text by program, amines drawn as free bases though some values may be those of a salt).

As usually defined, the melting point is the temperature, or range, at which the solid turns liquid.

Take `CCOC(=O)c1cn(-c2cc(NC(=O)OC(C)(C)C)c(F)cc2F)c2c(C)c(F)c(F)c([N+](=O)[O-])c2c1=O`: the melting point fell in the range of 188 to 189 °C.
The result for `O=c1oc2c(c(O)c1C(c1ccccc1)C1CC1)CCCCC2CC1CC1` (stereo not drawn) reads 77 to 83 °C; that for `O=C(CCCCCl)c1ccc2c(c1)Cc1cc(C(=O)CCCCCl)ccc1S2`, 85 to 86.5 °C; that for `O=C1c2ccccc2C(=O)c2c1oc1cc(O)ccc21`, more than 310 °C.
`CCCC(C)(C)c1nsc(N=CN(C)C)c1C#N` gave a melting point of 65 to 67 °C.
In the case of `CCCCC(=O)Nc1cccc([N+](=O)[O-])c1`, the melting point came out at 65 °C.
The result for `C[C@]12CCC(=O)N[C@@H]1CCc1cc(Sc3ccc4ccccc4n3)ccc12` reads 220 to 222 °C.
The value for `COc1ccc(/C=C/c2ccc3c(Nc4cc(OC)c(Cl)cc4Cl)c(C#N)cnc3c2)cc1` was 216 to 220 °C; that for `O=Cc1c2ccccc2c(C=O)c2ccccc12` was 224 to 245 °C; that for `O=S(=O)(Nc1ccccc1/C=C/c1ccncc1)c1ccc(OC(F)(F)F)cc1` was 151 to 153 °C.
The value for `COc1cc(N)c(Cl)cc1C(=O)NC1CCN(CCCOc2ccc(F)cc2)CC1(F)F` (stereo not drawn) was 126 °C; that for `COc1nc(C)c(N2CCCn3c2nc2c(Cl)ccc(C(OC(F)F)C(F)(F)F)c23)c(C)n1` (stereo not drawn) was 169 to 170 °C.
In turn, `O=c1ccc(C2(O)CCCCC2)c[nH]1` came in with a melting point of 194 to 196 °C.
The result for `CC1=C(C#N)S(=O)(=O)c2ccc(F)cc2N1` reads 261 to 263 °C; that for `CC(O)c1ccc(Nc2nccc(-c3cccnc3)n2)cc1` (stereo not drawn), 145 to 147 °C; that for `CNC(=O)c1cccc(F)c1Nc1nc(Nc2ccc3c(c2)CCCC(=O)N3CCOC)ncc1Cl`, 146 to 147 °C.
Compound `CS(=O)(=O)c1ccc(-c2cnn(-c3ccc(F)cc3)c(=O)c2N2CCCCC2)cc1` yielded a melting point of 80 to 100 °C.
The result for `COc1nc(C)nc(NC(=O)NS(=O)(=O)c2ccccc2CCC(F)(F)F)n1` reads 157 to 158 °C; that for `COc1ccc(NS(=O)(=O)c2cc(C)c3cc(C(C)C)ccc(C)c2-3)c(OC)c1`, 114 to 116 °C; that for `COc1ccc(CN(CCN(C)CCCCCCN=C(NC#N)NCCSCc2csc(NC(=N)N)n2)c2ccccn2)cc1`, 52 °C.
The value for `COc1ccc(NN=C(Sc2ccc(OC)cc2)C(C)=O)cc1` was 126 to 128 °C; that for `CC(C(=O)CCc1ccc(Cl)cc1)n1cncn1` (stereo not drawn) was 77 to 78 °C.
The result for `c1ccc(CN2CCN(c3onc4c3CCc3ccccc3-4)CC2)cc1` reads 148 to 149 °C; that for `COc1ccc(N2C(=O)CC(Cl)C2=O)cc1` (stereo not drawn), 142 to 143 °C.
The compound `Cc1cccc(N)c1C=C(Br)Br` came in with a melting point of 42 to 43 °C.
The value for `NS(=O)(=O)CCC(O)COCc1ccccc1` (stereo not drawn) was 94 to 98 °C; that for `O=C(O)[C@@H]1CSC(c2ccccc2O)N1C(=O)CCS` (stereo partly drawn) was 146 to 148 °C.
The result for `CNc1nc(N)nc2c1ncn2C1OC(CO)C(O)C1F` (stereo not drawn) reads 172 °C.
The value for `O=[N+]([O-])c1ccc(C2OCCO2)cc1` was 88 to 92 °C.
Compound `O=c1c2ccccc2nc(-c2sc(Nc3ccc(Cl)cc3)nc2-c2ccccc2)n1-c1ccccc1` registered a melting point of more than 275 °C.
The value for `CCCCCCc1ncc(/C=C(\Cc2cccs2)C(=O)O)n1Cc1ccc(C(=O)O)cc1` was 210 to 212 °C; that for `CC12CCCc3cc(N(CC4CC4)c4ncc(C(=O)O)cn4)cc(c31)CCC2` was 123 to 124 °C.
Consider `CC(Br)C(=O)c1ccc(OCc2ccccc2)c(CO)c1` (stereo not drawn), for which the melting point amounted to 80 °C.
The value for `COc1cccc(Cc2ccc3nc(N)nc(N)c3c2)c1` was 207 to 209 °C; that for `CCOC(=O)C1=C(C)NC(c2ccccc2)=NC1c1ccccc1[N+](=O)[O-]` (stereo not drawn) was 102 to 105 °C; that for `Cc1cc(C(C)(CC(=O)O)c2ccc(O)c(C)c2)ccc1O` was 130 °C.
The value for `CCCCN(CCCCO)c1ccc(C=Cc2ccc(C=CC3=C(C#N)C(=C(C#N)C#N)OC3(C)C)s2)c(OCc2ccccc2)c1` was 216 to 217 °C.
The compound `O=C1c2c(-c3ccccc3)ccnc2OCCN1Cc1cc(C(F)(F)F)cc(C(F)(F)F)c1` came in with a melting point of 200 to 201 °C.
The result for `NS(=O)(=O)Oc1c(Cl)cccc1Cl` reads 108 to 110 °C.
The value for `CCCCCCCCCCCCCCN(C)c1cc(OCC)c(N)cc1C(=O)O` was 80 to 81 °C; that for `CC(=O)Oc1cc([N+](=O)[O-])ccc1CN1C(=O)c2ccccc2C1=O` was 175 to 178 °C; that for `COC(=O)c1ccc(COc2cc(F)cc(C3(OC)CCOCC3)c2)cc1` was 88 to 89 °C.
The value for `CCOC(=O)C(CC)Oc1ccc(-c2nc(-c3ccc(OC(CC)C(=O)OCC)cc3O)nc(-c3ccc(OC(CC)C(=O)OCC)cc3O)n2)c(O)c1` (stereo not drawn) was 101 to 105 °C; that for `C[C@@H](n1cnc2cc(-c3ccc(F)cc3)sc2c1=O)[C@](O)(Cn1cncn1)c1ccccc1F` was 213 to 225 °C.
Consider `COC(=O)CCCCc1cccnc1CNC=O`, for which the melting point was in the range of 43 to 45 °C.
`O=S(=O)(c1ccccc1)N1CCC(C(NCCc2ccccc2)c2ccc(F)cc2)CC1` (stereo not drawn): the melting point was in the range of 115 to 117 °C.
The value for `CCOC(CBr)(OCC)c1csc(NC(=N)N)n1` was 157 to 158 °C; that for `CCCCCCc1ccc(-n2c(-c3ccc(C)cc3)cc(Br)c2-c2ccc(C)cc2)cc1` was 134 to 135 °C; that for `CC(=NOCCCC(=O)O)c1ccc(Cl)cc1` was 106 to 108 °C.
For the compound `CC12Cc3cnn(-c4ccc(F)cc4)c3C=C1CCC1C2=CCCC1c1ccccn1` (stereo not drawn), the melting point lay within 154 to 156 °C.
The result for `N#CCc1cc2c(-c3ccccc3)c(CC(=O)Nc3ccc(Cl)cc3C(F)(F)F)c(=O)oc2cc1Cl` reads 247 to 248 °C; that for `C=CCc1c(OCC(O)CN2CCN(Cc3ccc(Cl)cc3)CC2)ccc2c(OCc3ccccc3)cc(=O)oc12` (stereo not drawn), 155 to 157 °C.
The value for `COCOc1cccc2c(=O)[nH]c(C3CCN(C)CC3)cc12` was 194 to 196 °C; that for `Nc1cnc(-c2ccncc2)c(-c2cccc(F)c2)n1` was 221 to 222 °C; that for `CCc1nc2c(n1C(CC)CC)C(=O)N(C)CN2c1ccc(OC)cc1Cl` was 184 to 185 °C.
The value for `CCCCCCCCS(=O)(=O)c1ccc(CC(N)(CO)CO)cc1` was 108 to 109 °C.
The compound `COc1ccc(O[C@@H]2COc3ccc(OCc4ccccn4)cc3[C@@H]2O)cc1` (relative stereo) came in with a melting point of 117 to 118 °C.
The result for `O=C1c2c(Cl)cccc2-c2n[nH]c3cccc1c23` reads 310 °C.
The value for `Cc1oc(-c2ccccc2)nc1COc1ccc2oc(/C=C/CO)cc2c1` was 145 to 146 °C; that for `CC(=O)C[C@H]1CC[C@H](c2ccc(Cl)cc2)CC1` was 58 to 60 °C.
The value for `CS(=O)c1nnc(-c2ccc3occ(-c4cccc(OC(F)(F)F)c4)c3c2)o1` (stereo not drawn) was 98 to 99 °C; that for `COc1cccc2c1OCc1nc(C(=O)O)cn1-2` was 275 to 277 °C; that for `CCCCNC(=O)Oc1ccc(Oc2ccccc2)cc1Br` was 57 to 60 °C.
